Measured values as given in patent US11633392B2 (priority 2016, dated 2023).

Columns and labels:
[1] = tested on: C57BL/6N male mice; assay: Mouse elevated plus maze test; format: in vivo; details: subcutaneous, 1 mg/kg, 30 minutes before test (FIG. 2)
Description: Mouse Elevated Plus Maze Test
For the test, 5 to 6 weeks old C57BL/6N male mice were used. On a plus maze apparatus consisting of a wall-less running route (open arm, width 6 cm, length 30 cm) and a running route with a wall (closed arm, width 6 cm, length 30 cm, height of wall 15 cm), and having a height of 40 cm, a mouse was put so as to be directed to the running route with a wall, and allowed to spontaneously enter into the plus maze. Each test substance was dissolved in saline or 0.005 N HCl in saline, and subcutaneously administered on the back 30 minutes before the start of the test. At the time of the start of the test, video recording with a video camera was started, the time at which the mouse entered into the plus maze is considered to be the start of the test, and exploratory behavior was recorded for 5 minutes. On the basis of the video image, staying times in the running routes were determined, and wall-less running route staying time ratio (%) was calculated.

[2] = tested on: ICR male mice; assay: Reserpine-induced Parkinson's disease model mouse; format: in vivo; details: reserpine-treated mice, 10 mg/kg s.c.
Description: Reserpine-Induced Parkinson's Disease Model Mouse
ICR male mice (5 weeks old, Japan SLC) were obtained, and used after an acclimation period (5 to 12 days).
PD model was prepared with reference to the report of Hille et al. (Exp. Neurol., 2001, 172:189). It was prepared by intraperitoneally administering reserpine (5 mg/kg) 18 to 24 hours before the start of the test. The test was performed by subcutaneously administering a test compound to each mouse on the day of the test, immediately putting the mouse into a cage for monitoring locomotor activity, and measuring the migration distance over 60 minutes.

[3] = molecular target: T1, human opioid μ receptor (Homo sapiens, UniProt P35372); assay: Opioid receptor function test (Lance Ultra cAMP Kit), μ receptor; format: cell-based
T1 construct: host or cells: CHO cells
T1 sequence (P35372 whole entry): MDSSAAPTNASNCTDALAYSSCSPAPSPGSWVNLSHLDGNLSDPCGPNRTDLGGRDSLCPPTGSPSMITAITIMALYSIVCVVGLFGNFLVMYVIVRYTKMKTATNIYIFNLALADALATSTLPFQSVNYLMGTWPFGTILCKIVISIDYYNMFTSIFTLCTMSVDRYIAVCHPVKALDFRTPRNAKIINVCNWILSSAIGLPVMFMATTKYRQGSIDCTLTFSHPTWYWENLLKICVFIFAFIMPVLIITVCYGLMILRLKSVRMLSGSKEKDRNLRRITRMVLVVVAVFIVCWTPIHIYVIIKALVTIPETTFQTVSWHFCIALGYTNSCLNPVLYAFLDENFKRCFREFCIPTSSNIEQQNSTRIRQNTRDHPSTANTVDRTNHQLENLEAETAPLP

[4] = molecular target: T2, hERG potassium channel (Homo sapiens, UniProt Q12809); assay: hERG potassium channel inhibition test (automatic patch clamp); format: cell-based; details: pH 7.4, hERG-expressing CHO cells, tail current, read-out: hERG channel inhibitory action
T2 construct: host or cells: CHO cells
T2 sequence (Q12809 whole entry): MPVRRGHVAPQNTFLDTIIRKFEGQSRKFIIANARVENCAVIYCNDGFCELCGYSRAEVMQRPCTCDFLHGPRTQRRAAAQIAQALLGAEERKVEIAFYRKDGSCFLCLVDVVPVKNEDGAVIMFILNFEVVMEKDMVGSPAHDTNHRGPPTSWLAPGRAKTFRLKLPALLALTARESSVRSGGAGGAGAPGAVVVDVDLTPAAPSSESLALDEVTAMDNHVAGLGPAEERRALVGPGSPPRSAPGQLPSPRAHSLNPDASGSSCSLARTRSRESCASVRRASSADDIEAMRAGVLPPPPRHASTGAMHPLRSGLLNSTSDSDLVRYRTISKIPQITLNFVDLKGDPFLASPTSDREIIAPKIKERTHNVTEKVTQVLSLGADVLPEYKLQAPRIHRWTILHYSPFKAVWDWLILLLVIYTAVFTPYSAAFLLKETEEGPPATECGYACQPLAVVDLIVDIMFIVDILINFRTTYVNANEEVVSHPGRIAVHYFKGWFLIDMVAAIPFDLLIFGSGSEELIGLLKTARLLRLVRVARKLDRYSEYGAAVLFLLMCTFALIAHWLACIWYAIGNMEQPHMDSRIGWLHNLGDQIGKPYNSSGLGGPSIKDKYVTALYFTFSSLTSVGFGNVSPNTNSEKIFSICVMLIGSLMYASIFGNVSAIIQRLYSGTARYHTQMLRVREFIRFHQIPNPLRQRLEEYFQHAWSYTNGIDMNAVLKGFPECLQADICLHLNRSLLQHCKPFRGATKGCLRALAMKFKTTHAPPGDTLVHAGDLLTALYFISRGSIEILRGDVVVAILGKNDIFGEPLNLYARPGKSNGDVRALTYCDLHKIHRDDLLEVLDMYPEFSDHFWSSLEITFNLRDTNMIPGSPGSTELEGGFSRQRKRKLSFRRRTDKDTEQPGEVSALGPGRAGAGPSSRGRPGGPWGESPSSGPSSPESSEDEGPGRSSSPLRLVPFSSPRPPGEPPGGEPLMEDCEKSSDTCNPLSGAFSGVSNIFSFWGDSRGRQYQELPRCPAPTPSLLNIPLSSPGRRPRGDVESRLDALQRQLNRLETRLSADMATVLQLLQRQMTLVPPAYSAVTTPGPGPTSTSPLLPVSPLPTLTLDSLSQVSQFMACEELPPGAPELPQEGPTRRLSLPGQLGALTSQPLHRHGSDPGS
Description: hERG (Human Ether-A-Go-Go-Related Gene) Potassium Channel Inhibition Test
The test was performed with Port-a-Patch automatic patch clump apparatus (Nanion Technologies) using hERG channel-stably expressing CHO cells (purchased from Channelopathy Foundation). The membrane potential of the cells was maintained at −80 mV, then there were applied a depolarization pulse at +20 mV for 1.5 seconds, and a following test pulse at −50 mV for 1.5 seconds at a frequency of 1 time per 10 seconds, and the hERG current was confirmed as a tail current induced by the test pulse. The test compound was dissolved in an extracellular fluid (137 mM NaCl, 4 mM KCl, 1.8 mM CaCl2, 1 mM MgCl2, 10 mM D(+)-glucose, 10 mM HEPES, pH 7.4), and the solution was refluxed at room temperature for 5 minutes. The inhibition ratio was obtained from the ratio of the tail current value observed after the compound was applied based on the tail current value observed before the compound was applied, which was taken as 100%.

**Q.** For O=C(c1cccc(=O)[nH]1)N1C[C@H]2C[C@@]34CC[C@@H]1[C@@H]2[C@@]31CCN(CC2CC2)[C@@H]4Cc2ccc(O)cc21 [Example 7, 6-((1S,3aR,5aS,6R,11bR,11cS)-14-(cyclopropylmethyl)-10-hydroxy-2,3,3a,4,5,6,7,11c-octahydro-1H-6,11b-(epiminoethano)-1,5a-methanonaphtho[1,2-e]indole-3-carbonyl)pyridin-2(1H)-one], which “wall-less running route staying time ratio” value [1] is on record?
**A.** significantly increased

**Q.** What about the exploratory behavior ([2]; 60 minutes) of the same molecule?
**A.** significantly increased

**Q.** What about the standing up behavior ([2]; not significant (P=0.16)) of the same molecule?
**A.** tendency of increase

**Q.** And the EC50 ([3]; CHO cells expressing human μ receptor, cAMP, in the presence of forskolin, read-out: μ receptor EC50 value)?
**A.** > 1 nM

**Q.** And the Emax ([3]; ratio to maximum reaction of control drug DAMGO taken as 100%)?
**A.** 10%

**Q.** And the inhibition at 5 min, 10 µM [4]?
**A.** < 50%
